System: 135TIL
Assay: TCR β CDR3 repertoire analysis
Design: species or system human
Conditions: TCRβ CDR3 profiling
Description: To address this issue, PCDHB16 neoantigen-specific CD4^+ T cells were isolated by FACS sorting of PCDHB16-neoantigen T cells from freshly generated bulk T cells after stimulated PCDHB16 neoepitope peptide-pulsed 135EBV-B cells. Using the similar approach, MPG-specific CD8+ T cells were also purified from freshly generated bulk T cells after stimulated MPG neoepitope peptide-pulsed 135EBV-B cells. Genomic DNAs were isolated from the two purified neoantigen-specific T cell populations, as well as the parental bulk T cells, and used as templates for TCR β-chain CDR3 repertoire amplification. […] After the amplicons (from PCDHB16-, MPG-specific T cells and bulk 135TIL) were subjected to deep-sequenced via next-generation sequencing (reads>100,000 per sample), followed by bioinformatic analysis and TCR repertoire alignment. […] The relative TCR sequence frequencies that were identical to those in PCDHB16-specific T cells and MPG-specific T cells were determined in total 135TIL cell population (FIG. 10F). […]
Cytokine Secretion Assay-Detection Kit (MACS Miltenyi Biotec) was used in cell-surface IFN-γ staining based on a commercial protocol. […] Finally cells were washed with cold buffer and ready for flow cytometric analysis. […]

For “ENSPLGTEFPLNYALDLDVGSNNVQ [PCDHB16, immunodominant MHC-II neoantigen of patient #135]”, the “neoantigen-specific TCRs in the total 135TIL TCRs” value was 36%.

From patent US12565680B2, “Cancer neoantigens and their utilities in cancer vaccines and TCR-based cancer immunotherapy” (THE METHODIST HOSPITAL SYSTEM, priority 2018, dated 2026)
